# Source: patent US8796256B2 (Janssen Pharmaceutica NV, priority 2010, dated 2014)
# Target: T1, ERR1 (also known as ERR-α or ERR-1) (Homo sapiens, UniProt P11474)
# T1 sequence (P11474 193-421 limits assumed): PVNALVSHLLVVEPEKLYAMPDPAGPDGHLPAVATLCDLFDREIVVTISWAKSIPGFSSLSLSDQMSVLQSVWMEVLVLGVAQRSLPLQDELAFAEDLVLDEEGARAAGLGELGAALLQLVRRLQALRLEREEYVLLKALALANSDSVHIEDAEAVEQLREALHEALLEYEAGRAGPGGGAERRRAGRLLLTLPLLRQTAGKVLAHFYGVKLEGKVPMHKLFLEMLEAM
# Test: TR-FRET assay (disruption of co-activator peptide binding to ERR1 LBD)
# Format: biochemical
# Settings: 6 nM 6His-ERR1LBD, 6 nM GST-SRC-2 peptide; average of 3 independent experiments
# Outline: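 His-tagged ERR1 ligand-binding domain and GST-labelled SRC-2 peptide, each 6 nM, equilibrated at 25° C for 4-18 h in Tris pH 8/Hepes/KCl/DTT/delipidated BSA buffer. Compound-induced loss of co-activator binding read as Eu cryptate→XL665 energy transfer; values from hyperbolic curve fits averaged over 3 independent runs.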
row,EC50 [µM],Structure (SMILES)
1,0.073,"N[C@H](CN1C(=O)S/C(=C\c2ccc3c(cnn3Cc3ccc(Cl)cc3C(F)(F)F)c2)C1=O)c1ccccc1 [Compound 161, (5Z)-3-[(2S)-2-Amino-2-phenylethyl]-5-({1-[4-chloro-2-(trifluoromethyl)benzyl]-1H-indazol-5-yl}methylidene)-1,3-thiazolidine-2,4-dione]"
2,0.038,"O=C1S/C(=C\c2ccc3c(cnn3Cc3ccc(C(F)(F)F)cc3C(F)(F)F)c2)C(=O)N1[C@@H]1CCNC[C@H]1O (relative stereo) [Compound 271, (5Z)-5-({1-[2,4-Bis(trifluoromethyl)benzyl]-1H-indazol-5-yl}methylidene)-3-[trans-3-hydroxypiperidin-4-yl]-1,3-thiazolidine-2,4-dione]"
3,0.022,"O=C1S/C(=C\c2ccc3c(cnn3Cc3ccc(Cl)cc3C(F)(F)F)c2)C(=O)N1C[C@@H]1CN2CCOC[C@H]2CO1 [Compound 205, (5Z)-5-({1-[4-Chloro-2-(trifluoromethyl)benzyl]-1H-indazol-5-yl}methylidene)-3-[(3S,9aS)-hexahydro-1H-[1,4]oxazino[3,4-c] [1,4]oxazin-3-ylmethyl]-1,3-thiazolidine-2,4-dione]"
4,0.022,"N=C(N)NC(=O)CN1C(=O)S/C(=C\c2ccc3c(cnn3Cc3ccc(Cl)cc3C(F)(F)F)c2)C1=O [Compound 56, N-Carbamimidoyl-2-[(5Z)-5-({1-[4-chloro-2-(trifluoromethyl)benzyl]-1H-indazol-5-yl}methylidene)-2,4-dioxo-1,3-thiazolidin-3-yl]acetamide]"
5,0.579,"N#Cc1ccc(Cn2ncc3cc(/C=C4\SC(=O)N(CC(=O)O)C4=O)ccc32)c(C(F)(F)F)c1 [Compound 346, [(5Z)-5-({1-[4-Cyano-2-(trifluoromethyl)benzyl]-1H-indazol-5-yl}methylidene)-2,4-dioxo-1,3-thiazolidin-3-yl]acetic acid]"
6,0.014,"CC(=O)NN1C(=O)S/C(=C\c2ccc3c(cnn3Cc3ccc(Cl)cc3C(F)(F)F)c2)C1=O [Compound 356, N-[(5Z)-5-({1-[4-Chloro-2-(trifluoromethyl)benzyl]-1H-indazol-5-yl}methylidene)-2,4-dioxo-1,3-thiazolidin-3-yl]acetamide]"
7,0.091,"[2H]C([2H])([2H])N1CC[C@@H](N2C(=O)S/C(=C\c3ccc4c(cnn4Cc4ccc(C(F)(F)F)cc4C(F)(F)F)c3)C2=O)[C@H](F)C1 (relative stereo) [Compound 330, (5Z)-5-({1-[2,4-Bis(trifluoromethyl)benzyl]-1H-indazol-5-yl}methylidene)-3-[trans-3-fluoro-1-(1,1,1-d3)-methylpiperidin-4-yl]-1,3-thiazolidine-2,4-dione]"
8,0.043,"COc1ccc(Cn2ncc3cc(/C=C4\SC(=O)N(CCN5CC[C@@H](F)C5)C4=O)ccc32)c(C(F)(F)F)c1 [Compound 13, (5Z)-3-{2-[(3R)-3-Fluoropyrrolidin-1-yl]ethyl}-5-[(1-{[4-(methyloxy)-2-(trifluoromethyl)phenyl]methyl}-1H-indazol-5-yl)methylidene]-1,3-thiazolidine-2,4-dione]"
9,0.049,"O=C1S/C(=C\c2ccc3c(cnn3Cc3ccc(Cl)cc3C(F)(F)F)c2)C(=O)N1C[C@@H](O)CN1CCCC1 [Compound 292, (5Z)-5-({1-[4-Chloro-2-(trifluoromethyl)benzyl]-1H-indazol-5-yl}methylidene)-3-[(2S)-2-hydroxy-3-pyrrolidin-1-ylpropyl]-1,3-thiazolidine-2,4-dione]"
10,0.015,"COC(=O)NC1(CN2C(=O)S/C(=C\c3ccc4c(cnn4Cc4ccc(Cl)cc4C(F)(F)F)c3)C2=O)CCOCC1 [Compound 309, Methyl (4-{[(5Z)-5-({1-[4-chloro-2-(trifluoromethyl)benzyl]-1H-indazol-5-yl}methylidene)-2,4-dioxo-1,3-thiazolidin-3-yl]methyl}tetrahydro-2H-pyran-4-yl)carbamate]"
11,0.048,"CS(=O)(=O)NN1C(=O)S/C(=C\c2ccc3c(cnn3Cc3ccc(Cl)cc3C(F)(F)F)c2F)C1=O [Compound 370, N-[(5Z)-5-({1-[4-Chloro-2-(trifluoromethyl)benzyl]-4-fluoro-1H-indazol-5-yl}methylidene)-2,4-dioxo-1,3-thiazolidin-3-yl]methanesulfonamide]"
12,0.055,"O=C1S/C(=C\c2ccc3c(cnn3Cc3ccc(Cl)cc3C(F)(F)F)c2)C(=O)N1[C@H]1CCNC1 [Compound 114, (5Z)-5-({1-[4-Chloro-2-(trifluoromethyl)benzyl]-1H-indazol-5-yl}methylidene)-3-[(3S)-pyrrolidin-3-yl]-1,3-thiazolidine-2,4-dione]"
13,0.029,"O=C1S/C(=C\c2ccc3c(c2)nnn3Cc2ccc(Cl)cc2C(F)(F)F)C(=O)N1O [Compound 290, (5Z)-5-({1-[4-Chloro-2-(trifluoromethyl)benzyl]-1H-benzotriazol-5-yl}methylidene)-3-hydroxy-1,3-thiazolidine-2,4-dione]"
14,0.29,"O=C1S/C(=C\c2ccc3c(c2)c(O)nn3Cc2ccc(Cl)cc2C(F)(F)F)C(=O)N1CCN1CCCC1 [Compound 37, (5Z)-5-({1-[4-Chloro-2-(trifluoromethyl)benzyl]-3-oxo-2,3-dihydro-1H-indazol-5-yl}methylidene)-3-(2-pyrrolidin-1-ylethyl)-1,3-thiazolidine-2,4-dione]"
15,0.215,"O=C1S/C(=C\c2ccc3c(cnn3Cc3ccc(Cl)cc3C(F)(F)F)c2)C(=O)N1CCNS(=O)(=O)c1ccccc1 [Compound 391, N-{2-[(5Z)-5-({1-[4-Chloro-2-(trifluoromethyl)benzyl]-1H-indazol-5-yl}methylidene)-2,4-dioxo-1,3-thiazolidin-3-yl]ethyl}benzenesulfonamide]"
16,0.016,"O=C1S/C(=C\c2ccc3c(cnn3Cc3ccc(Cl)cc3C(F)(F)F)c2)C(=O)N1C1(C(=O)O)CCNCC1 [Compound 230, 4-[(5Z)-5-({1-[4-Chloro-2-(trifluoromethyl)benzyl]-1H-indazol-5-yl}methylidene)-2,4-dioxo-1,3-thiazolidin-3-yl]piperidine-4-carboxylic acid]"
17,0.01,"O=C1S/C(=C\c2ccc3c(cnn3Cc3ccc(Cl)cc3C(F)(F)F)c2)C(=O)N1CCNS(=O)(=O)N1CCOCC1 [Compound 398, N-{2-[(5Z)-5-({1-[4-Chloro-2-(trifluoromethyl)benzyl]-1H-indazol-5-yl}methylidene)-2,4-dioxo-1,3-thiazolidin-3-yl]ethyl}morpholine-4-sulfonamide]"
18,0.027,"O=C1S/C(=C\c2ccc3c(cnn3Cc3ccc(Cl)cc3C(F)(F)F)c2)C(=O)N1CCNCCO [Compound 52, (5Z)-5-({1-[4-Chloro-2-(trifluoromethyl)benzyl]-1H-indazol-5-yl}methylidene)-3-{2-[(2-hydroxyethyl)amino]ethyl}-1,3-thiazolidine-2,4-dione]"
19,0.021,"O=C1S/C(=C\c2ccc3c(cnn3Cc3ccc(Cl)cc3C(F)(F)F)c2)C(=O)N1Cc1nccn1Cc1ncc[nH]1 [Compound 404, (5Z)-5-({1-[4-Chloro-2-(trifluoromethyl)benzyl]-1H-indazol-5-yl}methylidene)-3-{[1-(1H-imidazol-2-ylmethyl)-1H-imidazol-2-yl]methyl}-1,3-thiazolidine-2,4-dione]"
20,0.05,"CN(C)CCN1C(=O)S/C(=C\c2ccc3c(ccn3Cc3ccc(Cl)cc3C(F)(F)F)c2)C1=O [Compound 243, (5Z)-5-[(1-{[4-Chloro-2-(trifluoromethyl)phenyl]methyl}-1H-indol-5-yl)methylidene]-3-[2-(dimethylamino)ethyl]-1,3-thiazolidine-2,4-dione]"
21,0.003,"CS(=O)(=O)NN1C(=O)S/C(=C\c2ccc3c(c2)c(F)nn3Cc2ccc(Cl)cc2C(F)(F)F)C1=O [Compound 368, N-[(5Z)-5-({1-[4-Chloro-2-(trifluoromethyl)benzyl]-3-fluoro-1H-indazol-5-yl}methylidene)-2,4-dioxo-1,3-thiazolidin-3-yl]methanesulfonamide]"
22,0.096,"CCN1CCC(N2C(=O)S/C(=C\c3ccc4c(c3)c(OC)nn4Cc3ccc(Cl)cc3C(F)(F)F)C2=O)CC1 [Compound 30, (5Z)-5-({1-[4-Chloro-2-(trifluoromethyl)benzyl]-3-methoxy-1H-indazol-5-yl}methylidene)-3-(1-ethylpiperidin-4-yl)-1,3-thiazolidine-2,4-dione]"
23,0.042,"CCN1CC[C@@H](N2C(=O)S/C(=C\c3ccc4c(cnn4Cc4ccc(Cl)cc4C(F)(F)F)c3)C2=O)[C@H](F)C1 [Compound 386, (5Z)-5-({1-[4-Chloro-2-(trifluoromethyl)benzyl]-1H-indazol-5-yl}methylidene)-3-[(3R,4R)-1-ethyl-3-fluoropiperidin-4-yl]-1,3-thiazolidine-2,4-dione]"
24,0.98,"O=C1S/C(=C\c2ccc3c(cnn3Cc3ccc(Cl)cc3C(F)(F)F)c2)C(=O)N1C[C@@H]1CSCCN1 [Compound 98, (5Z)-5-({1-[4-Chloro-2-(trifluoromethyl)benzyl]-1H-indazol-5-yl}methylidene)-3-[(3R)-thiomorpholin-3-ylmethyl]-1,3-thiazolidine-2,4-dione]"
25,0.033,"O=C(O)C(Cc1ccccn1)N1C(=O)S/C(=C\c2ccc3c(cnn3Cc3ccc(Cl)cc3C(F)(F)F)c2)C1=O (stereo not shown) [Compound 216, 2-[(5Z)-5-({1-[4-Chloro-2-(trifluoromethyl)benzyl]-1H-indazol-5-yl}methylidene)-2,4-dioxo-1,3-thiazolidin-3-yl]-3-pyridin-2-ylpropanoic acid]"
